In US9216999B2, “Substituted pyrrolo[2,3-h][1,6]naphthyridines and compositions thereof as JAK inhibitors” (priority 2011, dated 2015) one finds IC50 data, which are given here for 25 compounds.

Read-outs that look alike come from different tables or passages of the source.

Common to all, as to assay type: biochemical
Experiment [1] has as its target JAK1 (Homo sapiens (Human), UniProt P23458). Put plainly: Enzyme assay (Assay Example^a 1), JAK1. The conditions noted are these: ATP 100 μM.
Experiment [2] deals with JAK2 (Homo sapiens (Human), UniProt O60674). Description: Enzyme assay (Assay Example^a 1), JAK2. Conditions: ATP 100 μM.
The target in experiment [3] is JAK3 (Homo sapiens (Human), UniProt P52333). Put plainly: Enzyme assay (Assay Example^a 1), JAK3.
Sequence of JAK3 (P52333 whole entry): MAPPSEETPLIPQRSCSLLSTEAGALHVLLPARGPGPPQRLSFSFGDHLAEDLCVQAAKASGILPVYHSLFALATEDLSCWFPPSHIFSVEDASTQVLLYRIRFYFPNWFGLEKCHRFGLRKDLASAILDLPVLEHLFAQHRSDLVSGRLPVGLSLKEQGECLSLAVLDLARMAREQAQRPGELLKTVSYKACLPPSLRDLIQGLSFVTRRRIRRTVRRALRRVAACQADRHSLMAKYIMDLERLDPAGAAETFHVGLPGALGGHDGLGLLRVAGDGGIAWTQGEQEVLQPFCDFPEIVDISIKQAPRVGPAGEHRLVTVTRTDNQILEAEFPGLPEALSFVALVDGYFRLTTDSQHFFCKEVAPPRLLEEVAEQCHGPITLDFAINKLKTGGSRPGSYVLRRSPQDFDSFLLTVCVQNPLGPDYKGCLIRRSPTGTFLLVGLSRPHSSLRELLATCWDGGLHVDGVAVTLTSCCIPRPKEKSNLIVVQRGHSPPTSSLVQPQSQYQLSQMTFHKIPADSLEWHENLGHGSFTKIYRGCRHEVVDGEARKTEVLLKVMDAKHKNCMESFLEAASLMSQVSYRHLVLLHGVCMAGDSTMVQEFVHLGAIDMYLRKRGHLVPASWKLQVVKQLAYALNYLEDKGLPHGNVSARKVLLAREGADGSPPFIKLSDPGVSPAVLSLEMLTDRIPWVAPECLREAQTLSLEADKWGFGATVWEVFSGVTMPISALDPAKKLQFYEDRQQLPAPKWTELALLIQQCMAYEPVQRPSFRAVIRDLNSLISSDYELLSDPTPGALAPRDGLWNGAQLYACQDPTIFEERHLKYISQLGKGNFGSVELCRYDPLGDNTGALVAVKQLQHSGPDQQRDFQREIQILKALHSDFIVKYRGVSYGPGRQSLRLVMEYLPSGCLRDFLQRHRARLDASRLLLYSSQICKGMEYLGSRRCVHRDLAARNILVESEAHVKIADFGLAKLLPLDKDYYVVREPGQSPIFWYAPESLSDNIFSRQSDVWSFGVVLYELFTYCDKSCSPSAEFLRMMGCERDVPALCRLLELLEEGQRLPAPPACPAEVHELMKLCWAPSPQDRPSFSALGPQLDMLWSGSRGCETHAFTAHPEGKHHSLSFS
Experiment [4] has as its target Tyk2 (Homo sapiens (Human), UniProt P29597). Description: Enzyme assay (Assay Example^a 1), Tyk2. Conditions: ATP 100 μM.

Sequence of Tyk2 (P29597 whole entry): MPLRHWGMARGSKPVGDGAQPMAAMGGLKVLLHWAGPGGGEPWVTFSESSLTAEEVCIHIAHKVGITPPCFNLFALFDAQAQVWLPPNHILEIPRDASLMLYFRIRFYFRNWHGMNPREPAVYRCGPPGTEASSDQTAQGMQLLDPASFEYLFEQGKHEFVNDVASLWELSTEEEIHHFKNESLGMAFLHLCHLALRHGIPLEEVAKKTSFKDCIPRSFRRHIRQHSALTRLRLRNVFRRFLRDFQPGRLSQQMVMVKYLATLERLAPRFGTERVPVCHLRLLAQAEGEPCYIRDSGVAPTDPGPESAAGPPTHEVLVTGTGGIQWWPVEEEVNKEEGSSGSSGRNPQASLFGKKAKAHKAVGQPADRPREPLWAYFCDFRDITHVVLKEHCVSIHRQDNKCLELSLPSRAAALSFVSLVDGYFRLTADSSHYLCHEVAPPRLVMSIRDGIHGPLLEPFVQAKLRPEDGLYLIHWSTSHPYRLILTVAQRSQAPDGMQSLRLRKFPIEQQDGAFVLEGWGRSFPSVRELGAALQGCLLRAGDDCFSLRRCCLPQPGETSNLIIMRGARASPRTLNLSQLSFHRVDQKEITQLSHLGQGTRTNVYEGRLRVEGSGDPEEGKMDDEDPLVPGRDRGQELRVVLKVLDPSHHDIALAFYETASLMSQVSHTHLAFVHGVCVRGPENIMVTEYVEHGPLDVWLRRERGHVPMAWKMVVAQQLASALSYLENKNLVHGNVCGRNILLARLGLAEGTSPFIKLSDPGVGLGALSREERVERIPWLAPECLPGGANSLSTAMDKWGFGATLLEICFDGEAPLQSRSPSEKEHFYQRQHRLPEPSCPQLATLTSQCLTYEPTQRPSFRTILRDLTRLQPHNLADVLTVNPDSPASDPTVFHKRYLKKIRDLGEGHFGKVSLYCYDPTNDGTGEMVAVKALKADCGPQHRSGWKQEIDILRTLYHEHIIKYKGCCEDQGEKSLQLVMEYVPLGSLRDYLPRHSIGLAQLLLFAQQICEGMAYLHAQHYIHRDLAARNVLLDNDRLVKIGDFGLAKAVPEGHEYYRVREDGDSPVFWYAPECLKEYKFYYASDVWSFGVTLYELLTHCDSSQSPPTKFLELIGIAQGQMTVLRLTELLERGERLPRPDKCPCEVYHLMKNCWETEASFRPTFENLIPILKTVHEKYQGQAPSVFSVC

A word on the IC50: it is the point on the concentration scale where inhibition reaches its midpoint. A higher IC50 goes with a need for much substance. Take `CN(C)S(=O)(=O)C[C@H]1CC[C@H](c2nnn3cnc4[nH]ccc4c23)CC1` [compound 418, 1-[trans-4-(7H-pyrrolo[3,2-e][1,2,3]triazolo[1,5-c]pyrimidin-1-yl)cyclohexyl]-N,N-dimethylmethanesulfonamide]: the IC50 in experiment [1] came to 0.0043 µM; in experiment [2] it was 0.0084 µM; in experiment [3] (ATP 100 μM) it was 0.33 µM; in experiment [4], 0.17 µM.
`CN(CCO)C[C@H]1CC[C@H](c2nnn3cnc4[nH]ccc4c23)CC1` [compound 297, 2-({[trans-4-(7H-pyrrolo[3,2-e][1,2,3]triazolo[1,5-c]pyrimidin-1-yl)cyclohexyl]methyl}(methyl)amino)ethanol]: the IC50 in experiment [1] is 0.0095 µM; in experiment [2] it was 0.1 µM; in experiment [3] (ATP 100 μM), more than 1 µM; in experiment [4], 0.32 µM.
As for `O=C(CN[C@H]1CC[C@H](c2nnn3cnc4[nH]ccc4c23)CC1)NCC(F)(F)F` [384b, 2-{[trans-4-(7H-pyrrolo[3,2-e][1,2,3]triazolo[1,5-c]pyrimidin-1-yl)cyclohexyl]amino}-N-(2,2,2-trifluoroethyl)acetamide], the half-maximal inhibitory concentration (IC50) in experiment [1] was 0.022 µM; in experiment [2] it was 0.08 µM; in experiment [3] (ATP 100 μM), more than 1 µM; in experiment [4], more than 1 µM.
On to `Clc1ccc(NC[C@H]2CC[C@H](c3nnn4cnc5[nH]ccc5c34)CC2)cc1` [compound 176, N-{[trans-4-(7H-pyrrolo[3,2-e][1,2,3]triazolo[1,5-c]pyrimidin-1-yl)cyclohexyl]methyl}-4-chloroaniline], for which the IC50 in experiment [1] (Table^a 154) was 0.034 µM; in experiment [2] (Table^a 154), 0.19 µM; in experiment [3] (ATP 100 μM, Table^a 154), more than 1 µM; in experiment [4] (Table^a 154), more than 1 µM.
Consider `Clc1ccc(C2(NC[C@H]3CC[C@H](c4nnn5cnc6[nH]ccc6c45)CC3)COC2)cc1` [compound 308, N-{[trans-4-(7H-pyrrolo[3,2-e][1,2,3]triazolo[1,5-c]pyrimidin-1-yl)cyclohexyl]methyl}-3-(4-chlorophenyl)oxetan-3-amine], for which the IC50 worked out at 0.0024 µM in experiment [1], 0.012 µM in experiment [2], 0.24 µM in experiment [3] (ATP 100 μM) and 0.79 µM in experiment [4].
For the compound `CC(C)(C)OC(=O)N1CCC(CNC[C@H]2CC[C@H](c3nnn4cnc5[nH]ccc5c34)CC2)CC1` [compound 335, tert-butyl 4-[({[trans-4-(7H-pyrrolo[3,2-e][1,2,3]triazolo[1,5-c]pyrimidin-1-yl)cyclohexyl]methyl}amino)methyl]piperidine-1-carboxylate], the IC50 in experiment [1] is 0.029 µM; in experiment [2], 0.29 µM; in experiment [3] (ATP 100 μM), more than 1 µM; in experiment [4] it was 0.71 µM.
Taken in the same sequence, the figures for `O=C1COc2ccc(CN3CCC(c4nnn5cnc6[nH]ccc6c45)CC3)cc2N1` [compound 225, 6-{[4-(7H-pyrrolo[3,2-e][1,2,3]triazolo[1,5-c]pyrimidin-1-yl)piperidin-1-yl]methyl}-2H-benzo[b][1,4]oxazin-3(4H)-one] were 0.021 µM, 0.2 µM, more than 1 µM and more than 1 µM.
Taken in the same sequence, the figures for `N#CC[C@H]1CC[C@@H](c2nnn3cnc4[nH]ccc4c23)CC1` [435a, 2-[cis-4-(7H-Pyrrolo[3,2-e][1,2,3]triazolo[1,5-c]pyrimidin-1-yl)cyclohexyl]acetonitrile] were 0.0054 µM, 0.021 µM, 0.72 µM and 0.17 µM.
On to `Clc1ccc(CCN[C@H]2CC[C@H](c3nnn4cnc5[nH]ccc5c34)CC2)cc1` [198b, trans-N-(4-chlorophenethyl)-4-(7H-pyrrolo[3,2-e][1,2,3]triazolo[1,5-c]pyrimidin-1-yl)cyclohexanamine], for which the IC50 was determined as 0.0025 µM in experiment [1] (Table^a 154); 0.037 µM in experiment [2] (Table^a 154); 0.4 µM in experiment [3] (ATP 100 μM, Table^a 154); 0.065 µM in experiment [4] (Table^a 154).
In the same order, the values of `FC(F)(F)C1CCC(N2CCC(c3nnn4cnc5[nH]ccc5c34)CC2)CC1` (single isomer, unassigned) [56b] are 0.035 µM, 0.6 µM, more than 1 µM and more than 1 µM.
In the case of `CC(C)(O)C1CCN(C[C@H]2CC[C@H](c3nnn4cnc5[nH]ccc5c34)CC2)CC1` [compound 311, 2-(1-{[trans-4-(7H-pyrrolo[3,2-e][1,2,3]triazolo[1,5-c]pyrimidin-1-yl)cyclohexyl]methyl}piperidin-4-yl)propan-2-ol], the IC50 in experiment [1] is 0.025 µM; in experiment [2] it was 0.16 µM; in experiment [3] (ATP 100 μM), more than 1 µM; in experiment [4] it was 0.94 µM.
In the case of `CC(C)NC[C@H]1CC[C@H](c2nnn3cnc4[nH]ccc4c23)CC1` [compound 331, N-{[trans-4-(7H-pyrrolo[3,2-e][1,2,3]triazolo[1,5-c]pyrimidin-1-yl)cyclohexyl]methyl}propan-2-amine], the IC50 in experiment [1] was 0.0088 µM; in experiment [2], 0.054 µM; in experiment [3] (ATP 100 μM), more than 1 µM; in experiment [4], 0.42 µM.
Regarding `CS(=O)(=O)c1ccc(CN2CCC(c3nnn4cnc5[nH]ccc5c34)CC2)cc1` [compound 156], the IC50 in experiment [1] (Table^a 154) worked out at 0.0032 µM; in experiment [2] (Table^a 154), 0.042 µM; in experiment [3] (ATP 100 μM, Table^a 154) it was 0.52 µM; in experiment [4] (Table^a 154), 0.65 µM.
As for `COc1ccc(C(O)(CN[C@H]2CC[C@H](c3nnn4cnc5[nH]ccc5c34)CC2)C(F)(F)F)cc1OC` (stereo partly drawn) [390b, 3-{[trans-4-(7H-pyrrolo[3,2-e][1,2,3]triazolo[1,5-c]pyrimidin-1-yl)cyclohexyl]amino}-2-(3,4-dimethoxyphenyl)-1,1,1-trifluoropropan-2-ol], the IC50 amounted to 0.0024 µM in experiment [1], 0.089 µM in experiment [2], 0.52 µM in experiment [3] (ATP 100 μM) and 0.36 µM in experiment [4].
Taken in the same sequence, the figures for `C=C1CCC(c2nnn3cnc4[nH]ccc4c23)CC1` [compound 433, 1-(4-Methylenecyclohexyl)-7H-pyrrolo[3,2-e][1,2,3]triazolo[1,5-c]pyrimidine] were 0.0081 µM, 0.027 µM, 0.71 µM and 0.12 µM.
In the same order, the values of `CC(C)(O)c1cn(C[C@H]2CC[C@H](c3nnn4cnc5[nH]ccc5c34)CC2)nn1` [compound 370, 2-(1-{[trans-4-(7H-Pyrrolo[3,2-e][1,2,3]triazolo[1,5-c]pyrimidin-1-yl)cyclohexyl]methyl}-1H-1,2,3-triazol-4-yl)propan-2-ol] are 0.0074 µM, 0.097 µM, 0.59 µM and more than 1 µM.
As to `OC(CN[C@H]1CC[C@H](c2nnn3cnc4[nH]ccc4c23)CC1)(c1cccnc1)C(F)(F)F` (stereo partly drawn) [385b, 3-{[trans-4-(7H-pyrrolo[3,2-e][1,2,3]triazolo[1,5-c]pyrimidin-1-yl)cyclohexyl]amino}-1,1,1-trifluoro-2-(pyridin-3-yl)propan-2-ol], the IC50 in experiment [1] was 0.0019 µM; in experiment [2] it was 0.031 µM; in experiment [3] (ATP 100 μM), 0.18 µM; in experiment [4], 0.21 µM.
For the compound `c1cc2c(ncn3nnc([C@H]4CC[C@H](NN5CCOCC5)CC4)c23)[nH]1` [139b], the IC50 was 0.021 µM in experiment [1] (Table^a 154); 0.076 µM in experiment [2] (Table^a 154); more than 1 µM in experiment [3] (ATP 100 μM, Table^a 154); 0.5 µM in experiment [4] (Table^a 154).
On to `O=C([C@H]1CC[C@H](c2nnn3cnc4[nH]ccc4c23)CC1)N1CC(O)C1` [compound 361, [trans-4-(7H-pyrrolo[3,2-e][1,2,3]triazolo[1,5-c]pyrimidin-1-yl)cyclohexyl](3-hydroxyazetidin-1-yl)methanone], for which the IC50 was 0.089 µM in experiment [1], 0.25 µM in experiment [2], more than 1 µM in experiment [3] (ATP 100 μM) and more than 1 µM in experiment [4].
On to `c1ccc(CN[C@H]2CC[C@@H](c3nnn4cnc5[nH]ccc5c34)CC2)cc1` [194a, cis-N-benzyl-4-(7H-pyrrolo[3,2-e][1,2,3]triazolo[1,5-c]pyrimidin-1-yl)cyclohexanamine], for which the IC50 in experiment [1] (Table^a 154) is 0.032 µM; in experiment [2] (Table^a 154) it was 0.74 µM; in experiment [3] (ATP 100 μM, Table^a 154) it was more than 1 µM; in experiment [4] (Table^a 154), 0.33 µM.
As for `CN(CCC#N)C[C@H]1CC[C@H](c2nnn3cnc4[nH]ccc4c23)CC1` [compound 302, 3-({[trans-4-(7H-pyrrolo[3,2-e][1,2,3]triazolo[1,5-c]pyrimidin-1-yl)cyclohexyl]methyl}(methyl)amino)propanenitrile], the IC50 in experiment [1] worked out at 0.012 µM; in experiment [2] it was 0.029 µM; in experiment [3] (ATP 100 μM), 0.49 µM; in experiment [4] it was 0.36 µM.
As for `FC1CN(C[C@H]2CC[C@H](c3nnn4cnc5[nH]ccc5c34)CC2)C1` [compound 338, 1-{trans-4-[(3-fluoroazetidin-1-yl)methyl]cyclohexyl}-7H-pyrrolo[3,2-e][1,2,3]triazolo[1,5-c]pyrimidine], the IC50 in experiment [1] stood at 0.0069 µM; in experiment [2] it was 0.06 µM; in experiment [3] (ATP 100 μM), 0.48 µM; in experiment [4], 0.59 µM.
Taken in the same sequence, the figures for `FC(F)(F)CN[C@H]1CC[C@H](c2nnn3cnc4[nH]ccc4c23)CC1` [395b, trans-4-(7H-pyrrolo[3,2-e][1,2,3]triazolo[1,5-c]pyrimidin-1-yl)-N-(2,2,2-trifluoroethyl)cyclohexanamine] were 0.0022 µM, 0.01 µM, 0.61 µM and 0.15 µM.
Turning to `Fc1ccc2c(c1)CCN2C[C@H]1CC[C@H](c2nnn3cnc4[nH]ccc4c23)CC1` [compound 179, 1-[trans-4-((5-fluoroindolin-1-yl)methyl)cyclohexyl]-7H-pyrrolo[3,2-e][1,2,3]triazolo[1,5-c]pyrimidine], the IC50 in experiment [1] (Table^a 154) was 0.028 µM; in experiment [2] (Table^a 154), 0.094 µM; in experiment [3] (ATP 100 μM, Table^a 154), more than 1 µM; in experiment [4] (Table^a 154) it was more than 1 µM.
Consider `FCCNC[C@H]1CC[C@H](c2nnn3cnc4[nH]ccc4c23)CC1` [compound 107], for which the IC50 in experiment [1] (Table^a 154) is 0.0028 µM; in experiment [2] (Table^a 154), 0.055 µM; in experiment [3], 0.28 µM; in experiment [4] (Table^a 154) it was 0.036 µM.
